# Values quoted from earlier work in US6730664B1, “Formulations for parenteral use of estramustine phosphate and sulfoalkyl ether cyclodextrins” (Pharmacia Italia S.p.A., priority 1999, dated 2004).
# Conditions: patients, slow intravenous injection or bolus, 300 mg/day
smiles,measurement,value
"C[C@]12CC[C@@H]3c4ccc(OC(=O)N(CCCl)CCCl)cc4CC[C@H]3[C@@H]1CC[C@@H]2OP(=O)(O)O [estramustine phosphate, Estramustine phosphate]",side effects at the peripheral intravenous injection sites,thrombophlebitis and local irritations
